Reference: paper PMC10815578 (International Journal of Molecular Sciences, 2024)
Where “and” joins values, the source holds several entries; their conditions need not be identical. Identical values can stand only once. Like-named read-outs stand apart in the source and are kept apart here. One block for each molecule: values may come before it.

Tests used:
[1] = target: T1, OATP4C1 (Homo sapiens, UniProt Q6ZQN7); assay: Kinetic analysis of OATP4C1-mediated T3 uptake in the presence of inhibitors; assay type: cell-based; design: expressed in transfected cells; sodium butyrate induction before uptake
T1 sequence (Q6ZQN7 1-724): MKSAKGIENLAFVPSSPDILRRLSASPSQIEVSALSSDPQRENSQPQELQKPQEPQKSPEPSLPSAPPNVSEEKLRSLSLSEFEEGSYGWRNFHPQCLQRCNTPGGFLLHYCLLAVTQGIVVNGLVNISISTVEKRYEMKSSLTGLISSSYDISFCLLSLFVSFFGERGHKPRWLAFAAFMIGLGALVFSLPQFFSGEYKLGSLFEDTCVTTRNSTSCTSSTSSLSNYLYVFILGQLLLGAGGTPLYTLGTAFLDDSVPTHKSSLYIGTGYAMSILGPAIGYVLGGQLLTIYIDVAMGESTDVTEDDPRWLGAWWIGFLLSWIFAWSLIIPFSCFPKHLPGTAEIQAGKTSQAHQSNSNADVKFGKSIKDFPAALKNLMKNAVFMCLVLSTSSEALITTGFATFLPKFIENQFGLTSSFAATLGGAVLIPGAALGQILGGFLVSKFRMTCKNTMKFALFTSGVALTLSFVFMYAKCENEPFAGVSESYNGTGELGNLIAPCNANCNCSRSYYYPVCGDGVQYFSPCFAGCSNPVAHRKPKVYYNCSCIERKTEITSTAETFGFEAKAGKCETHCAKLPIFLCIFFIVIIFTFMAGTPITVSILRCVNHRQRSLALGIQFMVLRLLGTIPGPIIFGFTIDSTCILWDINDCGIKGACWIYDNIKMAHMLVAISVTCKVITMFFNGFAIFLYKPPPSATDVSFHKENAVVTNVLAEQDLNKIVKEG
Method: Data are shown as the mean ± SE (n = 6). The kinetic curves were fitted to the Michaelis–Menten equation. […] Each curve represents the fitted line obtained by the kinetic analysis by JMP Pro 16.
The kinetic curves were fitted to the Michaelis–Menten equation. […] The experiment was performed in duplicate (n = 2) and repeated three times.

[2] = target: T1, OATP4C1; assay: Inhibition of OATP4C1-mediated T3 uptake in OATP4C1/MDCKII cells; conditions: for Ki: Ki for OATP4C1 (average); for inhibition at 10 min, 100 µM: human
Method: Figure 3 Screening of the effect of food ingredients on OATP4C1-mediated transport. Cells were incubated with 1 µM T3 with or without food ingredients for 10 min at 37 °C. The concentration of the compounds was 100 µM, except for theaflavin (50 µM). The amount of OATP4C1-mediated uptake was calculated by subtracting the nonspecific uptake of T3 by mock cells from the total cellular uptake by OATP4C1-expressing cells. […] Dashed line represents 100% (control uptake in the absence of food ingredient).
The MDCKII cells transfected with OATP4C1 or an empty vector were established in our laboratory [18].
The cellular uptake of T3 was measured in monolayer cell cultures grown in 24-well plates. Cells were seeded at a density of 2.0 × 10^5 cells/well. Thereafter, the cells were incubated in a culture medium containing 5 mM sodium butyrate for 24 h before the uptake study. […] Cellular uptake was initiated by adding T3-containing KH buffer with or without each flavonoid. Uptake was terminated after 10 min by replacing the incubation buffer with ice-cold KH buffer. The cells were washed twice with ice-cold KH buffer. The concentration of T3 was measured using liquid chromatography/tandem mass spectrometry (LC/MS/MS). Cellular uptake was presented as the uptake amount divided by the amount of cellular protein quantified using the Bradford protein assay. The experiment was performed in triplicate (n = 3) and repeated three times. Flavonoids, except ellagic acid, were dissolved in dimethyl sulfoxide (DMSO) at a final concentration of less than 0.5%. A stock solution of ellagic acid (20 mM) was obtained by dissolving it in 0.05 M NaOH and was further diluted to 100 µM in KH buffer (the pH was adjusted to 7.4).
The experiment was performed in triplicate (n = 3) and repeated three times.

[3] = tested on: OATP1B1; conditions: cited from earlier work; for IC50: read-out: OATP1B1 IC50; for OATP1B1 inhibition degree: ref 1 of the supplement
[4] = tested on: OATP1B3; conditions: Supplementary table, ref previous reports (superscript numbers), cited from earlier work; for IC50: read-out: OATP1B3 IC50
[5] = tested on: OATP2B1; conditions: Supplementary table, ref previous reports (superscript numbers), cited from earlier work; for IC50: read-out: OATP2B1 IC50; for Ki: read-out: OATP2B1 Ki (asterisk)
[6] = tested on: OAT1; conditions: Supplementary table; ref previous reports (superscript numbers); cited from earlier work
[7] = tested on: OAT3; conditions: Supplementary table; ref previous reports (superscript numbers); cited from earlier work
[8] = Supplementary table, ref previous reports (superscript numbers)
[9] = pH 7.4, probe T3 (1 µM), OATP4C1 inhibition degree, 100 µM, Supplementary table
[10] = pH 7.4, probe T3 (1 µM), inhibition of OATP4C1-mediated transport, 100 µM compound, 1 µM T3, 10 min, 37 °C, without AA

SMILES: O=c1c(-c2ccc(O)cc2)coc2cc(O)ccc12 [daidzein]
OATP4C1 inhibition or elevation (class) [2]: Yes
inhibitory effect on OATP4C1-mediated transport in the presence of AA compared with its absence [2]: weakened
inhibition at 10 min, 100 µM [2, 9]: 40%
inhibition at 10 min, 100 µM [2, 10]: 40%
IC50 [5]: 22.3 µM and 20.7 µM

SMILES: O=c1c(O)cc([C@H]2Oc3cc(O)cc(O)c3C[C@H]2O)cc2c([C@H]3Oc4cc(O)cc(O)c4C[C@H]3O)cc(O)c(O)c12 [Theaflavin, theaflavin]
alteration of OATP4C1-mediated transport (in words) ([2]; 100 µM (theaflavin 50 µM), 1 µM T3, 10 min, without AA): did not inhibit
OATP4C1 inhibition or elevation (class) ([2]; Supplementary table): No
Ki [5]: 8.2 ± 1.7 µM

SMILES: COc1cc(-c2oc3cc(O)cc(O)c3c(=O)c2O)ccc1O [isorhamnetin]
inhibitory effect on OATP4C1-mediated transport in the presence of AA compared with its absence ([2]; 100 µM compound, 10 µM AA): weakened
OATP4C1 inhibition or elevation (class) ([2]; Supplementary table): Yes
inhibition at 10 min, 100 µM ([2]; pH 7.4): 18%
IC50 [4]: 3.1 µM
IC50 [5]: 0.82 µM

SMILES: C[C@@H]1O[C@@H](OC[C@H]2O[C@@H](Oc3c(-c4ccc(O)c(O)c4)oc4cc(O)cc(O)c4c3=O)[C@H](O)[C@@H](O)[C@@H]2O)[C@H](O)[C@H](O)[C@H]1O [Rutin, rutin]
OATP4C1 inhibition or elevation (class) ([2]; Supplementary table): No
OATP1B1 elevation degree ([3]; 50 µM, ref 2 of the supplement): 81.1%
OATP1B1 inhibition degree ([3]; 150 µM): < 50%
OATP1B1 inhibition or elevation (class) [3, 8]: Elevation
IC50 [4]: 111.5 ± 1.1 µM
IC50 [5]: 60.7 ± 1.2 µM

SMILES: COc1ccc([C@@H]2CC(=O)c3c(O)cc(O[C@@H]4O[C@H](CO[C@@H]5O[C@@H](C)[C@H](O)[C@@H](O)[C@H]5O)[C@@H](O)[C@H](O)[C@H]4O)cc3O2)cc1O [Hesperidin, hesperidin]
OATP4C1 inhibition or elevation (class) ([2]; Supplementary table): No

SMILES: C[C@@H]1O[C@@H](O[C@H]2[C@H](Oc3cc(O)c4c(c3)O[C@H](c3ccc(O)cc3)CC4=O)O[C@H](CO)[C@@H](O)[C@@H]2O)[C@H](O)[C@H](O)[C@H]1O [Naringin, naringin]
OATP4C1 inhibition or elevation (class) ([2]; Supplementary table): No
OATP1B1 inhibition degree ([3]; 250 µM): < 50%
OATP1B1 inhibition or elevation (class) [3, 8]: Yes
IC50 [4]: 197.5 ± 1.1 µM

More lines, main results first:

Vmax of OATP4C1-mediated T3 uptake in the presence of the inhibitor ([1]; inhibitor 30 µM, 10 µM AA, 10 min, 37 °C): 517 ± 92.6 pmol/mg Protein/10 min
manner of inhibition of OATP4C1-mediated T3 uptake ([1]; kinetic analysis): competitive manner
IC50 ([2]; IC50 for OATP4C1, AA(+) 10 µM, 1 µM T3, 10 min): 33.7 µM
IC50 ([2]; IC50 for OATP4C1, AA(−), 1 µM T3, 10 min): 29.3 µM
Ki ([2]; AA(+) 10 µM, 1 µM T3, 10 min): 28.8 µM
Ki ([2]; AA(−), 1 µM T3, 10 min): 25.1 µM
SMILES: O=c1c(O)c(-c2ccc(O)cc2)oc2cc(O)cc(O)c12 [kaempferol]
IC50 [3, 8]: 32.4 µM and 33 µM
Ki ([3]; read-out: OATP1B1 Ki (asterisk), Supplementary table, ref previous reports (superscript numbers)): 16 ± 1.9 µM
Ki ([4]; read-out: OATP1B3 Ki (asterisk)): 24.4 ± 1.8 µM
IC50 [5]: 20.7 ± 1.8 µM
Ki [5]: 15.1 ± 7.8 µM

inhibitory effect on OATP4C1-mediated transport in the presence of AA compared with its absence ([2]; 100 µM compound, 10 µM AA): weakened
OATP4C1 inhibition or elevation (class) ([2]; Supplementary table): No
inhibition at 10 min, 100 µM [2, 10]: 24%
SMILES: O=c1c(O)c(-c2ccc(O)c(O)c2)oc2cc(O)ccc12 [fisetin]

OATP4C1 inhibition or elevation (class) ([2]; Supplementary table): No
SMILES: O=c1c(O)c(-c2cc(O)c(O)c(O)c2)oc2cc(O)cc(O)c12 [Myricetin, myricetin]

inhibitory effect on OATP4C1-mediated transport in the presence of AA compared with its absence ([2]; 100 µM compound, 10 µM AA): weakened
OATP4C1 inhibition or elevation (class) ([2]; Supplementary table): Yes
inhibition at 10 min, 100 µM [2, 9]: 57%
inhibition at 10 min, 100 µM [2, 10]: ≥ 50%
SMILES: O=c1c(O)c(-c2ccc(O)cc2O)oc2cc(O)cc(O)c12 [morin]
IC50 [6]: < 0.3 µM and 0.5 µM

inhibitory effect on OATP4C1-mediated transport in the presence of AA compared with its absence ([2]; 100 µM compound, 10 µM AA): weakened
OATP4C1 inhibition or elevation (class) ([2]; Supplementary table): Yes
inhibition at 10 min, 100 µM ([2]; pH 7.4): 42%
SMILES: O=c1c(-c2ccc(O)cc2)coc2cc(O)cc(O)c12 [genistein]
IC50 [3, 8]: 14.9 ± 3.76 µM

inhibitory effect on OATP4C1-mediated transport in the presence of AA compared with its absence ([2]; 100 µM compound, 10 µM AA): weakened
OATP4C1 inhibition or elevation (class) ([2]; Supplementary table): Yes
inhibition at 10 min, 100 µM [2, 9]: 52%
inhibition at 10 min, 100 µM [2, 10]: ≥ 50%
SMILES: O=c1cc(-c2ccc(O)c(O)c2)oc2cc(O)cc(O)c12 [luteolin]
IC50 [7]: 4.2 µM
IC50 [5]: 0.42 µM
